Assay results: paper PMC11728001, “Design, Synthesis, and Biological Evaluation of Novel Urea-Containing Carnosic Acid Derivatives with Anticancer Activity” (International Journal of Molecular Sciences, 2024)

Experiments:
Format in all cases: cell-based
SW480 cells [1] = test: Apoptosis assay (annexin V-FITC/PI, FACS); conditions: SW480, IC50 concentration
Text: Apoptosis can be detected by staining the cells with annexin V and propidium iodide (PI). […] However, during the early stages of apoptosis, the membrane flips and PS is exposed on the outer side of the cell membrane. Thus, annexin V fluorescently labeled with fluorescein isothiocyanate (FITC) binds with high affinity for PS. In late apoptosis/necrosis, the cells experience a ruptured membrane, allowing Annexin V to interact with the entire cell membrane. At this stage, the nuclear membrane loses its integrity, which facilitates the binding of PI to DNA. Thus, this dual-staining protocol allows for the detection and quantification of live cells (annexin V−, PI−), early apoptotic cells (annexin V+, PI−), and late apoptotic/necrotic cells (annexin V+, PI+).
SW480 cells (1.68 × 10^5 cells/well) were seeded in 6-well plates and incubated at 37 °C for 24 h. Subsequently, the growth medium was replaced with fresh medium (control) or compound 14 at the previously determined IC50 concentration. Following incubation for 24, 48, or 72 h, the adherent cells were gently detached by trypsinization, washed with DPBS, and collected by centrifugation. Similarly, the cells in suspension were washed with DPBS and collected by centrifugation, along with the adhered cells. […]

CDK6 = test: Western blot, CDK6 expression in SW480 cells; conditions: SW480, IC50 concentration, 24, 48 and 72 h
Method: (§1) SW480 cells (1.68 × 10^5 cells/well) were seeded in 6-well plates and incubated at 37 °C for 24 h. […] At the end of the treatment period, cells were washed twice with ice-cold DPBS and incubated for 30 min. at 4 °C with lysis buffer containing 20 mM Tris-HCl (pH 7.5), 1 mM DTT, 0.2% Triton X-100, 1 mM Na-EDTA, 0.5 mM sodium deoxycholate, 1% proteases inhibitor cocktail, and 0.5% phosphatases inhibitor cocktail. The cells were scraped, sonicated, and centrifuged at 12,000× g for 20 min. at 4 °C. The supernatants were recovered, and the protein concentration was quantified using Pierce^TM BCA protein assay reagents A and B and Pierce^TM bovine serum albumin standard ampules (2 mg/mL).
(§2) Membranes were blocked with 5% skim milk in PBS-Tween-20 (0.1%) for 1 h at room temperature, following its incubation with the specific primary antibodies overnight at 4 °C (CDK4, CDK6, and SOD2 (MnSOD)). Exceptionally, the primary antibody against actin was only incubated for 30 min. at room temperature. The membranes were then washed with PBS-Tween-20 (0.1%) and incubated for 40 min. with an anti-mouse secondary antibody or for 1 h with an anti-rabbit secondary antibody. After incubation, the membranes were washed again with PBS-Tween-20 (0.1%) and treated with the Immobilon Western Chemiluminescent HRP Substrate Kit. […]

SOD2 (MnSOD) = test: Western blot, SOD2 (MnSOD) expression in SW480 cells; conditions: SW480, IC50 concentration, 24, 48 and 72 h
Method: as §1, §2

[2] = tested on: BJ non-tumoral fibroblast cell line; test: MTT cell viability assay, BJ; conditions: 72 h incubation
Method: (§3) The effect of the compounds on cell viability was evaluated using the MTT assay. HCT116 (3000 cells/well), SW620 (8000 cells/well), SW480 (6000 cells/well), Caco-2 (4000 cells/well), A375 (1500 cells/well), MiaPaca-2 (2000 cells/well), and BJ (10,000 cells/well) cells were seeded in 96-well plates. After 24 h, the growth medium was replaced with a fresh medium containing the desired concentration of the compound or DMSO (control). After 72 h of incubation, the supernatant was removed and 100 µL of a mixture (1:1) of filtered MTT solution (1 mg/mL in PBS) with FBS-free medium was added to each well. After 1 h of incubation at 37 °C, the mixture was removed and 100 µL of DMSO was added to each well to dissolve the formed formazan crystals. Absorbance was immediately measured at 570 nm using a Benchmark Plus Microplate Reader (Bio-Rad Laboratories, Hercules, CA, USA). IC50 values were calculated using GraphPad Prism 9 software (GraphPad Software, San Diego, CA, USA) and expressed as the mean ± standard deviation (SD) of at least three independent experiments.

[3] = tested on: intracellular ROS in SW480 cells; test: ROS determination assay (H2DCFDA, flow cytometry); conditions: SW480, IC50 concentration
Method: Intracellular ROS levels were assessed by flow cytometry using H2DCFDA probe. SW480 cells were cultured in 6-well plates and treated according to the procedure described for the apoptosis assay. After incubation for 24, 48, and 72 h, adherent cells were collected by centrifugation after trypsinization and washed with DPBS. The cells were then incubated with 1 mL HBSS containing 2 mM L-glutamine and 50 µM H2DCFDA probe at 37 °C for 45 min. in a cell culture incubator. Next, the cellular suspension was washed with 2 mL of DPBS and the cells were collected by centrifugation. Finally, the cells were gently resuspended in 350 µL DPBS containing 20 µg/mL PI solution (1 mg/mL). The intracellular internalized probe reacts with ROS and undergoes transformation into 2′,7′-dichlorofluorescein (DCF). DCF fluorescence data were collected from 1 × 10^4 PI-negative cells by using a Gallios flow cytometer (Beckman Coulter, Brea, CA, USA) at 520 nm.

SW480 cells [4] = test: MTT cell viability assay, SW480; conditions: Homo sapiens, 72 h incubation, mean ± SD
Method: as §3

CC(=O)Oc1c(C(C)C)cc2c(c1OC(C)=O)[C@@]1(NC(=O)NCCc3cccc(Cl)c3)CCCC(C)(C)[C@@H]1CC2 [Compound 14, (4bR,8aS)-4b-(3-(3-chlorophenethyl)ureido)-2-isopropyl-8,8-dimethyl-4b,5,6,7,8,8a,9,10-octahydrophenanthrene-3,4-diyl diacetate]
increase of cells in late apoptosis/necrosis (SW480 cells [1]; 48 and 72 h): not sustained | percentage of cells in late apoptosis/necrosis (SW480 cells [1]; 24 h, control 6.5%): 8.3% | CDK6 expression versus untreated cells (CDK6): downregulation | expression of SOD2 (MnSOD) (SOD2 (MnSOD)): no significant changes | IC50 [2]: > 25 µM | percentage of intracellular ROS compared with control ([3]; 24 h): 56% | percentage of intracellular ROS compared with control ([3]; 48 h): 71% | change in ROS levels ([3]; 72 h): no significant changes | IC50 (SW480 cells [4]): 6.1 ± 0.3 µM
